Experimental data reported in patent US20250011719A1, “NEW METHOD FOR IMPROVING QUALITY OF PLATELETS” (SHANGHAI SYNVIDA BIOTECHNOLOGY CO. LTD., priority 2021, published 2025).

What was measured:
[1] = test system: human apheresis platelets; test: Platelet apoptosis (Annexin V flow cytometry) of stored apheresis platelets; format: cell-based; settings: for apoptosis ratio: Dorsomorphin 2HCl 1 uM, 4 uM, AICAR 0.1 uM, 0.5 uM, 4th day of storage, vs control; for apoptosis ratio of platelets: N-acetylcysteine 5 mM, Mesna 50 uM, glutathione 200 uM, 7th day of storage, vs control group
Procedure: (§1) An appropriate amount of apheresis platelets was added to a 50 ml centrifuge tube (the volume should not exceed 15 ml/tube). The mouth of the 50 ml centrifuge tube was covered and fixed with a clinical platelet storage bag as a gas-permeable membrane, placed on a horizontal shaker. The speed of the shaker was determined according to the volume inside the tube, ensuring the platelets were fully shaken and fully exposed to oxygen for respiration without touching the gas-permeable membrane.
Platelets were sampled according to conventional methods, then the concentration of platelets was diluted to 10^8/ml with Tyrodes's Buffer. 25 μl of platelets in the experimental group and control group were added to new EP tubes. Each tube was added with 5 μl of 10×Binding Buffer, 2 μl of FITC labeled Annexin V and 18 μl of Tyrodes's Buffer to a total of 50 μl in the reaction system. After incubating at room temperature in the dark for 15 minutes, 200 μl 1×Binding Buffer was added for detection on the machine, with a tube of unlabeled platelets as a negative control. The platelets labeled with Annexin V were detected within one hour after labeling and the FITC-positive cell population was the platelets in the process of apoptosis.

[2] = test system: human apheresis platelets; test: Mitochondrial potential difference (JC1/TMRM flow cytometry) of stored apheresis platelets; format: cell-based
Procedure: as §1
9.1 Changes in platelet mitochondrial potential difference were detected by JC1 fluorescent dyes: A JC1 working solution was prepared according to conventional methods. Positive control platelets were treated with CCCP to reduce mitochondrial membrane potential, that is, the positive control. Sampled platelets were diluted to 10^8/ml. 25 μl of platelets was taken and added with 25 μl of JC1 working solution. After mixed and incubated at 37° C. in the dark for 30 minutes, a 200 μl of 1×JC1 staining buffer was added for detecting the fluorescence intensity on the machine. The relative ratio of red and green fluorescence was used to represent the ratio of mitochondrial depolarization.
The platelet sampling and dilution were as described above. 50 μl Tyrodes's Buffer and 0.1 μl TMRM stock solution were added to a 50 μl dilution solution, incubated at 37° C. in the dark for 30 minutes, with 500 μl Tyrodes's Buffer added for detection on the machine. The fluorescence intensity of TMRM will red shift according to the change of mitochondrial potential difference. The fluorescence intensity was used to represent the level of mitochondrial potential difference.

[3] = test system: human apheresis platelets; test: Mitochondrial reactive oxygen species (Mitosox) of stored apheresis platelets; format: cell-based; settings: for mitochondrial reactive oxygen species levels: Dorsomorphin 2HCl 1 uM, 4 uM, AICAR 0.1 uM, 0.5 uM, 4th day of storage, vs control; for accumulation of intracellular reactive oxygen species: N-acetylcysteine 5 mM, Mesna 50 uM, glutathione 200 uM, 7th day of storage, vs control group
Procedure: as §1
Using the conventional method, 25 μl platelets were diluted in equal proportions, added with 0.1 μl Mitosox reagent (5 mM) and incubated in the dark at 37° C. for 30 minutes, with 200 μl buffer added to detect the fluorescence intensity; stained the adherent cells: after centrifugation at 600 g for 5 minutes to remove the supernatant, the cells were resuspended in 200 μl Mitosox working solution, incubated at 37° C. in the dark for 30 minutes, centrifuged at 600 g for 5 minutes, washed twice with PBS and added with 200 μl PBS for resuspending and detecting the cells.

[4] = test system: human apheresis platelets; test: Platelet aggregation / responsiveness to agonists of stored apheresis platelets; format: cell-based
Procedure: as §1
By conventional methods, using a platelet aggregation instrument, 300 μl of 3×10^8 platelets/ml and the required […] were added to the aggregation tube and incubated at 37° C. for 3 minutes after gentle stirring. A baseline was established and the changes of an aggregation curve were observed within 5 minutes.

[5] = test system: human apheresis platelets; test: Storage quality of human apheresis platelets at room temperature; format: cell-based; settings: summary statement of the results of the examples; substance used individually
Procedure: as §1
This method can simulate the storage of clinical apheresis platelets in a laboratory environment and can be used for sampling and the sampling is completed. The collected apheresis platelet samples can be used for platelet counting, flow cytometry index detection, protein collection, platelet viability detection, ATP content detection and other purposes.

stored mouse platelets = test: Transfusion of stored mouse PRP into WT mice; format: in vivo; settings: mouse PRP stored in vitro 1 day with NMN 0.5 mM, NAC 5 mM, AMPKi 4 uM alone or combined; biotin-labeled, infused into WT mice; PBS control
Procedure: (§2) Blood was taken from the abdominal aorta of mice. Apyrase (in a final concentration of 1 U/ml) and PGE1 (in a final concentration of 0.1 μg/ml) that can inhibit platelet aggregation was then added with to the whole blood, mixed quickly and centrifuged (1050 rpm, room temperature, 10 minutes). After two centrifuges, the upper plasma of the experimental group was sucked out, discarded and the platelet precipitate at the bottom was retained. The plasma of wild-type mice was evenly distributed to the platelet pellets of mice in the experimental group and wild-type group. The platelets were uniformly dispersed and suspended, and then preserved according to the method of human platelets.
In platelet transfusions, it is undesirable for stored platelets to be rapidly cleared from circulation. To evaluate the effects of the above compounds on the quality of platelets stored in vivo, two mouse transfusion models were used. In the first model, stored human platelets were transfused into immunodeficient NCG (NOD-Prkdcem26Cd52Il2rgem 26Cd22/NjuCrl) mice. NMN+NAC+AMPKi (NMN 0.5 mM, NAC 5 mM, AMPKi 4 uM) or PBS as a control was added. Human platelet concentrates were stored for 6 days in vitro. They were then labeled with biotin and infused into NCG mice. […] However, platelet clearance was lower in the NMN+NAC+AMPKi group compared to the control group (FIG. 8B). In another group of models, mouse PRP was stored in vitro for 1 day, added with NMN, NAC, AMPK inhibitor or NMN+NAC+AMPK inhibitor (NMN 0.5 mM, NAC 5 mM, AMPKi 4 uM) or PBS as a control. They were then labeled with biotin and infused into WT mice.

mouse platelets [6] = test: Mouse ITP model (anti-CD42b antibody R300); format: in vivo, mice; settings: intravenous, combination 1 μmol NMN, 10 μmol NAC, 8 nmol AMPKi, vs control group
Procedure: WT mice were intravenously injected with NMN, NAC, AMPK inhibitor, or NMN+NAC+AMPK inhibitor. After 30 minutes, basal platelet counts were first determined from complete blood counts using a HEMAVET automated hematology analyzer. Mouse platelets were cleared by intravenous injection of 2 μg anti-CD42b monoclonal antibody R300 (purchased from Emfret). Orbital blood was collected at different time points to monitor platelet clearance and recovery.
To evaluate the effects of NMN, NAC or AMPK inhibitor on platelet survival in ITP patients, an ITP mouse model was established by intravenous injection of a low dose of anti-CD42b antibody R300.

[7] = test system: 293T cells stably transfected with CPT2, CPT2K79Q or CPT2K79R; test: Electron microscopy of mitochondria in CPT2 and CPT2 mutant stable transfected cell lines treated with palmitoylcarnitine; format: cell-based; settings: 4 hours
Description: A plasmid of pLVX-IRES-ZsGreen1 inserted with CPT2K79R, a plasmid of pLVX-IRES-ZsGreen1 inserted with CPT2K79Q, and a plasmid of pLVX-IRES-ZsGreen1 inserted with CPT2 were synthesized by Shanghai Sunny Biotechnology Co., Ltd. Lentiviral transfection, 293T cell infection, and stably transfected cell lines were all carried out by conventional methods.
To further verify the correlation between CPT2K79 acetylation and the accumulation of acylcarnitine, three plasmids were constructed: wild-type CPT2, CPT2K79R mutation, and CPT2K79Q mutation. These three plasmids were packaged into lentiviruses using a three-plasmid system for infecting 293T cells. The exogenous genes were integrated into the host genome, and […] stable transfected cell lines were selected through flow cytometry sorting. CPT2K79R is a CPT2 molecule with the mutation of lysine at position 79 to arginine, abolishing acetylation at position 79. CPT2K79Q is a CPT2 molecule with the mutation of lysine at position 79 to glutamine, simulating acetylation at position 79.
After treating CPT2 and CPT2 mutant stable transfected cell lines with acylcarnitine for 4 hours, the cells were fixed. Then electron microscopy was used to observe the status and structure of mitochondria in different cell lines treated with or without palmitoylcarnitine. […] In one embodiment, there were anomalies in the morphology and arrangement of mitochondrial cristae, and the cristae became disarrayed, fragmented and blurred, with bright areas appearing in the center of the mitochondria, indicating severe damage to the mitochondrial inner membrane structure.

rat platelets = test: Storage of rat platelet-rich plasma with added palmitoyl carnitine; format: cell-based, rats; settings: palmitoyl carnitine 2 μM and 10 μM; days 1 and 2 of storage
Procedure: Whole blood was obtained from wild-type rats and wild-type mice via abdominal aortic puncture, and platelet-rich plasmas (PRP) were prepared separately for rats and mice. Platelet storage experiments were conducted, with two additional experimental groups each receiving the addition of palmitoyl carnitine at different concentrations (2 μM and 10 μM). Platelet apoptosis ratio, mitochondrial ROS level and changes in mitochondrial membrane potential were measured during storage days 0-4.

mouse platelets [8] = test: Storage of mouse platelet-rich plasma with added palmitoyl carnitine; format: cell-based, mice; settings: palmitoyl carnitine 2 μM and 10 μM; days 1 and 2 of storage; concentration-dependent trend
Procedure: as §2, with “platelets. Whole blood was obtained from wild-type rats and wild-type mice via abdominal aortic puncture, and platelet-rich plasmas (PRP) were prepared separately for rats and mice. Platelet storage experiments were conducted, with two additional experimental groups each receiving the addition of palmitoyl carnitine at different concentrations (2 μM and 10 μM). Platelet apoptosis ratio, mitochondrial ROS level and changes in mitochondrial membrane potential were measured during storage days 0-4.” for “platelets.”

[9] = Dorsomorphin 2HCl 1 uM, 4 uM, AICAR 0.1 uM, 0.5 uM, 4th day of storage, vs control
[10] = N-acetylcysteine 5 mM, Mesna 50 uM, glutathione 200 uM, 7th day of storage
[11] = added to freshly isolated platelets, second day of platelet storage, compared to the control group

NC(=O)c1ncn([C@@H]2O[C@H](CO)[C@@H](O)[C@H]2O)c1N [AICAR]
apoptosis ratio [1]: increased
mitochondrial membrane potential [2, 9]: significant decrease
mitochondrial reactive oxygen species levels [3]: elevation
platelet responsiveness to stimuli [4, 9]: detrimental

Cl.Cl.c1cc(-c2cnn3cc(-c4ccc(OCCN5CCCCC5)cc4)cnc23)ccn1 [Dorsomorphin 2HCl]
apoptosis ratio [1]: varying degrees of improvement
mitochondrial membrane potential [2, 9]: varying degrees of improvement
quality of platelets [5]: significantly improved
survival in vivo of stored platelets (stored mouse platelets): better than controls
platelet survival rate (mouse platelets [6]): higher
recovery rate of platelet counts (mouse platelets [6]): higher
mitochondrial reactive oxygen species levels [3]: varying degrees of improvement
platelet responsiveness to stimuli [4, 9]: varying degrees of improvement

O=S(=O)([O-])CCS.[Na+] [Mesna, sodium 2-mercaptoethane sulfonate]
apoptosis ratio of platelets [1]: lower
mitochondrial membrane potential [2, 10]: protected
accumulation of intracellular reactive oxygen species [3]: reduce
platelet responsiveness to stimuli [4, 10]: protected

CC(=O)N[C@@H](CS)C(=O)O [N-acetylcysteine]
apoptosis ratio of platelets [1]: lower
mitochondrial membrane potential [2, 10]: protected
quality of platelets [5]: significantly improved
survival in vivo of stored platelets (stored mouse platelets): better than controls
platelet survival rate (mouse platelets [6]): higher
recovery rate of platelet counts (mouse platelets [6]): higher
accumulation of intracellular reactive oxygen species [3]: reduce
platelet responsiveness to stimuli [4, 10]: protected

NC(=O)c1cccnc1 [NAM, nicotinamide]
quality of platelets [5]: significantly improve

NC(=O)c1ccc[n+]([C@@H]2O[C@H](COP(=O)([O-])O)[C@@H](O)[C@H]2O)c1 [NMN, nicotinamide mononucleotide]
quality of platelets [5]: significantly improved
survival in vivo of stored platelets (stored mouse platelets): better than controls
platelet survival rate (mouse platelets [6]): higher
recovery rate of platelet counts (mouse platelets [6]): higher

NC(=O)c1ccc[n+]([C@@H]2O[C@H](CO)[C@@H](O)[C@H]2O)c1 [NR, nicotinamide riboside]
quality of platelets [5]: significantly improve

OC(CNc1ccccc1)Cn1c2ccc(Br)cc2c2cc(Br)ccc21 (centres unmarked) [P7C3]
quality of platelets [5]: significantly improve

O=C(NCc1ccncc1)Nc1ccc(S(=O)(=O)N2CC3CCC(C2)O3)cc1 [SBI-797812]
quality of platelets [5]: significantly improve

N[C@@H](CCC(=O)N[C@@H](CS)C(=O)NCC(=O)O)C(=O)O [glutathione]
apoptosis ratio of platelets [1]: lower
mitochondrial membrane potential [2, 10]: protected
accumulation of intracellular reactive oxygen species [3]: reduce
platelet responsiveness to stimuli [4, 10]: protected

CCCCCCCCCCCCCCCC(=O)OC(CC(=O)[O-])C[N+](C)(C)C (centres unmarked) [palmitoylcarnitine]
apoptosis rates [1, 11]: higher
mitochondrial membrane potential [2, 11]: lower
effect on the mitochondrial status ([7]; CPT2K79Q cell line, low concentrations of palmitoylcarnitine): particularly pronounced
effect on the mitochondrial status ([7]; CPT2K79R cell line, low-dose palmitoylcarnitine): little effect
mitochondria (electron microscopy) ([7]; three cell lines, low concentrations of palmitoylcarnitine, vs group without palmitoylcarnitine): significantly worse
status of rat platelets (rat platelets): did not cause significant changes
status of mouse platelets (mouse platelets [8]): effectively reduced
levels of mitochondrial reactive oxygen species [3, 11]: higher
